# Test system: Haematococcus pluvialis (Strain 2)
# Test: % cell lysis, culture dry weight and % carotenoid by UV method in 230 L reactors, salt treatment (Example 12)
# Assay type: cell-based
# Conditions: for Culture Dry Weight in 230L reactors: NaCl 2 ppt (1st 2 ppt column)
# Method: This test was done side by side in flasks (0.1 L) and in reactors located in a greenhouse operating in conditions: reactor volume of 230 L; Daily PAR of 20 mol m^−2 d^−1; pH (not measured); and paddlewheel speed of 21 RPM. […] The flask cultures were mixed by shaking at 140 rpm and received 300-400 μmol/m^2 s of photosynthetically active radiation (PAR) in 12 hour light cycles and constant supply of 2.5% CO2. The motility of the culture was monitored by visual observation under a microscope. […] Nine 230 L reactors were also seeded with culture from bioreactor #2410 on the same day as the flasks and brought to 2 ppt concentration of salt. Once motility of the cells was reduced to <10% (day 3 of culture for flasks and day 2 for 230 L reactors) the level of salt was elevated to a point between 4-18 ppt and compared to the culture in two reactors remaining at 2 ppt salt. Flasks and 230 L reactors were monitored for percentage of cell lysis via visual observation under a microscope, culture dry weight (biomass accumulation in g/L), and percentage of chytrid infection via visual observation under a microscope. Carotenoid production, a proxy for determining astaxanthin, was quantified every other day of culture in the 230 L reactors using the UV method.
smiles,measurement,setting,value
"[Cl-].[Na+] [NaCl, sodium chloride]",% Cell Lysis in 230L reactors,"4 ppt, 2 d",1.67%
same,% Cell Lysis in 230L reactors,"4 ppt, 3 d",0.00%
same,% Cell Lysis in 230L reactors,"4 ppt, 4 d",0.00%
same,% Cell Lysis in 230L reactors,"4 ppt, 5 d",3.33%
same,% Cell Lysis in 230L reactors,"4 ppt, 6 d",0.00%
same,% Cell Lysis in 230L reactors,"4 ppt, 7 d",30.00%
same,% Cell Lysis in 230L reactors,"4 ppt, 8 d",23.33%
same,% Cell Lysis in 230L reactors,"4 ppt, 9 d",13.33%
same,% Cell Lysis in 230L reactors,"4 ppt, 10 d",11.67%
same,% Cell Lysis in 230L reactors,"4 ppt, 11 d",5.00%
same,% Cell Lysis in 230L reactors,"4 ppt, 12 d",6.67%
same,% Cell Lysis in 230L reactors,"5 ppt, 2 d",3.18%
same,% Cell Lysis in 230L reactors,"5 ppt, 3 d",5.00%
same,% Cell Lysis in 230L reactors,"5 ppt, 4 d",3.33%
same,% Cell Lysis in 230L reactors,"5 ppt, 5 d",1.67%
same,% Cell Lysis in 230L reactors,"5 ppt, 6 d",21.67%
same,% Cell Lysis in 230L reactors,"5 ppt, 7 d",10.00%
same,% Cell Lysis in 230L reactors,"5 ppt, 8 d",1.67%
same,% Cell Lysis in 230L reactors,"5 ppt, 9 d",5.00%
same,% Cell Lysis in 230L reactors,"5 ppt, 10 d",5.00%
same,% Cell Lysis in 230L reactors,"5 ppt, 11 d",8.33%
same,% Cell Lysis in 230L reactors,"5 ppt, 12 d",3.33%
same,% Cell Lysis in 230L reactors,"6 ppt, 2 d",0.00%
same,% Cell Lysis in 230L reactors,"6 ppt, 3 d",0.00%
same,% Cell Lysis in 230L reactors,"6 ppt, 4 d",8.33%
same,% Cell Lysis in 230L reactors,"6 ppt, 5 d",0.00%
same,% Cell Lysis in 230L reactors,"6 ppt, 6 d",13.33%
same,% Cell Lysis in 230L reactors,"6 ppt, 7 d",18.33%
same,% Cell Lysis in 230L reactors,"6 ppt, 8 d",1.67%
same,% Cell Lysis in 230L reactors,"6 ppt, 9 d",6.67%
same,% Cell Lysis in 230L reactors,"6 ppt, 10 d",1.67%
same,% Cell Lysis in 230L reactors,"6 ppt, 11 d",6.67%
same,% Cell Lysis in 230L reactors,"6 ppt, 12 d",5.00%
same,% Cell Lysis in 230L reactors,"7 ppt, 2 d",0.00%
same,% Cell Lysis in 230L reactors,"7 ppt, 3 d",0.00%
same,% Cell Lysis in 230L reactors,"7 ppt, 4 d",3.33%
same,% Cell Lysis in 230L reactors,"7 ppt, 5 d",1.67%
same,% Cell Lysis in 230L reactors,"7 ppt, 6 d",18.33%
same,% Cell Lysis in 230L reactors,"7 ppt, 7 d",8.33%
same,% Cell Lysis in 230L reactors,"7 ppt, 8 d",1.67%
same,% Cell Lysis in 230L reactors,"7 ppt, 9 d",6.67%
same,% Cell Lysis in 230L reactors,"7 ppt, 10 d",6.67%
same,% Cell Lysis in 230L reactors,"7 ppt, 11 d",11.67%
same,% Cell Lysis in 230L reactors,"7 ppt, 12 d",5.00%
same,% Cell Lysis in 230L reactors,"8 ppt, 2 d",3.18%
same,% Cell Lysis in 230L reactors,"8 ppt, 3 d",3.33%
same,% Cell Lysis in 230L reactors,"8 ppt, 4 d",0.00%
same,% Cell Lysis in 230L reactors,"8 ppt, 5 d",3.33%
same,% Cell Lysis in 230L reactors,"8 ppt, 6 d",16.67%
same,% Cell Lysis in 230L reactors,"8 ppt, 7 d",5.00%
same,% Cell Lysis in 230L reactors,"8 ppt, 8 d",0.00%
same,% Cell Lysis in 230L reactors,"8 ppt, 9 d",6.67%
same,% Cell Lysis in 230L reactors,"8 ppt, 10 d",15.00%
same,% Cell Lysis in 230L reactors,"8 ppt, 11 d",11.67%
same,% Cell Lysis in 230L reactors,"8 ppt, 12 d",3.33%
same,% Cell Lysis in 230L reactors,"10 ppt, 2 d",0.00%
same,% Cell Lysis in 230L reactors,"10 ppt, 3 d",5.00%
same,% Cell Lysis in 230L reactors,"10 ppt, 4 d",6.67%
same,% Cell Lysis in 230L reactors,"10 ppt, 5 d",36.67%
same,% Cell Lysis in 230L reactors,"10 ppt, 6 d",31.67%
same,% Cell Lysis in 230L reactors,"10 ppt, 7 d",3.33%
same,% Cell Lysis in 230L reactors,"10 ppt, 8 d",0.00%
same,% Cell Lysis in 230L reactors,"10 ppt, 9 d",5.00%
same,% Cell Lysis in 230L reactors,"10 ppt, 10 d",3.33%
same,% Cell Lysis in 230L reactors,"10 ppt, 11 d",6.67%
same,% Cell Lysis in 230L reactors,"10 ppt, 12 d",5.00%
same,% Cell Lysis in 230L reactors,"18 ppt, 2 d",0.00%
same,% Cell Lysis in 230L reactors,"18 ppt, 3 d",3.33%
same,% Cell Lysis in 230L reactors,"18 ppt, 4 d",13.33%
same,% Cell Lysis in 230L reactors,"18 ppt, 5 d",5.00%
same,% Cell Lysis in 230L reactors,"18 ppt, 6 d",26.67%
same,% Cell Lysis in 230L reactors,"18 ppt, 7 d",20.00%
same,% Cell Lysis in 230L reactors,"18 ppt, 8 d",1.67%
same,% Cell Lysis in 230L reactors,"18 ppt, 9 d",8.33%
same,% Cell Lysis in 230L reactors,"18 ppt, 10 d",5.00%
same,% Cell Lysis in 230L reactors,"18 ppt, 11 d",1.67%
same,% Cell Lysis in 230L reactors,"18 ppt, 12 d",3.33%
same,cell lysis,"230 L reactors, all treatments except 10 ppt",below 30%
same,Culture Dry Weight in 230L reactors,time 0 d,0.030 g/L
same,Culture Dry Weight in 230L reactors,time 1 d,0.042 g/L
same,Culture Dry Weight in 230L reactors,time 2 d,0.065 g/L
same,Culture Dry Weight in 230L reactors,time 4 d,0.145 g/L
same,Culture Dry Weight in 230L reactors,time 5 d,0.228 g/L
same,Culture Dry Weight in 230L reactors,time 6 d,0.173 g/L
same,Culture Dry Weight in 230L reactors,time 7 d,0.185 g/L
same,Culture Dry Weight in 230L reactors,time 8 d,0.273 g/L
same,Culture Dry Weight in 230L reactors,time 9 d,0.145 g/L
same,Culture Dry Weight in 230L reactors,time 10 d,0.220 g/L
same,Culture Dry Weight in 230L reactors,time 11 d,0.145 g/L
